# Entries after “also recorded” stand apart in the source; their conditions may differ.
# Legend:
# [1] = Matschiner et al., 1972; cited from earlier work
# EGFR [2] = target: T1, EGFR (Homo sapiens, UniProt P00533); assay: Western blot of phosphorylated EGFR in A431 / HN5 cells; type: cell-based; conditions: for concentration at which activation of EGFR was seen / activation (phosphorylation) of EGFR: 2 hours exposure; for activation (phosphorylation) of EGFR: concentrations up to 1000 μM; for concentration at which activation was seen, converted to mass concentration: K3: EGFR, Akt and Stat-3, K1: EGFR and Akt
# T1 construct: Two human cell lines that overexpress non-mutated EGFR were used; endogenous in cells; host or cells: A431 vulvar carcinoma; HN5 head and neck carcinoma
# T1 sequence (P00533 25-1210): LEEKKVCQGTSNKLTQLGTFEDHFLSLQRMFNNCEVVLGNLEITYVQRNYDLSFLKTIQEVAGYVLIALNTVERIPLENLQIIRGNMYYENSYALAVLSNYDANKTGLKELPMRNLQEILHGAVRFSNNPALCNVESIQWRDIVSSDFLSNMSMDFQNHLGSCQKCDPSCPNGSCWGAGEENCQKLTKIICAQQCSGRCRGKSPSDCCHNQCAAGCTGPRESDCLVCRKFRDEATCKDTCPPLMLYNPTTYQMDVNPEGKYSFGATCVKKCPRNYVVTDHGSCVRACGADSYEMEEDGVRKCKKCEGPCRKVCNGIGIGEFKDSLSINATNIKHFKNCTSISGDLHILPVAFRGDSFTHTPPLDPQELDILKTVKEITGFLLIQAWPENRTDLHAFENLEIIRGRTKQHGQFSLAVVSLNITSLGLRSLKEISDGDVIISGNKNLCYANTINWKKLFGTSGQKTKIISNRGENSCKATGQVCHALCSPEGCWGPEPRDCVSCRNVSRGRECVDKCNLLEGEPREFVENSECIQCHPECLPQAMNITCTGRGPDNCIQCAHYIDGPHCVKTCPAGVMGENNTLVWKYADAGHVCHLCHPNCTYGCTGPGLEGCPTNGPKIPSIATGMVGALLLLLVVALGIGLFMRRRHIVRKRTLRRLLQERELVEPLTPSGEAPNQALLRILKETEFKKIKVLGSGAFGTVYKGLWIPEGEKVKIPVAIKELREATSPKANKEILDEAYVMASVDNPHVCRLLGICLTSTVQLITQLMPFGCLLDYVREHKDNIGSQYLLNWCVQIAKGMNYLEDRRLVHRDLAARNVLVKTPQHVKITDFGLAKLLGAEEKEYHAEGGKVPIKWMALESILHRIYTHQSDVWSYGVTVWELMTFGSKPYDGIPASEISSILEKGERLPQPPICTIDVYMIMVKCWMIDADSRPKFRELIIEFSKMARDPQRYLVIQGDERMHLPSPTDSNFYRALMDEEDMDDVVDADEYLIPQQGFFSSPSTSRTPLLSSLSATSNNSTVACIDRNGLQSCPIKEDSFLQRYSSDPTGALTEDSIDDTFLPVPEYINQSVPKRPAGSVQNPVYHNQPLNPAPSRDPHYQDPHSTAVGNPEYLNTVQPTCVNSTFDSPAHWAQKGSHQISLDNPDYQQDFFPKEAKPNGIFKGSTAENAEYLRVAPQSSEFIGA
# Experimental: FIG. 1A-1C. Effects of Vitamins K1, K2 and K3 (VK1, VK2, VK3) on the phosphorylation of EGFR (A), AKT (B) and Stat-3 (C) in human A431 vulvar carcinoma cells. […] Cells were exposed to the indicated concentrations of VK1, VK2 and VK3 for 2 hours. Following exposure, cells were washed twice with cold phosphate buffered saline (PBS) solution, and lysed with 50 μl of lysis buffer. Equal amounts of lysate (30 μg of protein) were subjected to a 7.5% or a 12% SDS-PAGE. EGFR, phos-EGFR, AKT, phos-AKT, Stat-3, and phos-Stat-3 were detected by immunoblotting analysis using corresponding antibodies.
# FIG. 2. […] After exposure, cells were washed twice with cold PBS solution, and lysed with 50 μl of lysis buffer. Equal amounts of lyaste (30 μg of protein) were subjected to a 7.5% SDS-PAGE. EGFR and phosphorylated EGFR were detected by immunoblotting analysis using corresponding antibodies.
# FIG. 4A-4B. […] Cells were exposed to 0.1 mM VK3 for 1 hour. Following exposure, cells were washed three times with cold medium and then reincubated in VK3-free fresh medium with 10% fetal bovine serum for the indicated times. Cells were harvested and lysed with lysis buffer. Equal amounts of cell lysate were subjected on 7.5% SDS-PAGE (A). The total EGFR and phosphorylated EGFR (p-EGFR) were detected by immunoblot analysis using corresponding antibodies. Control (Con) means cells were not exposed to VK3. The relative p-EGFR was expressed as the intensity of p-EGFR bands in each time points measured by a laser densitometry compared with that in control as one (B).
# (§1) Two human cell lines that overexpress non-mutated EGFR were used: A431 vulvar carcinoma and HN5 head and neck carcinoma. Cells were exposed to different concentrations of different vitamin K analogs in the presence of one of three EGFR inhibitors: the anti-EGFR monoclonal antibody cetuximab (Erbitux®) and the EGFR tyrosine kinase inhibitors (TKIs) erlotinib (Tarceva®) and gefitinib (Iressa®). Cytotoxicity was assessed by cell counting. Cells were lysed and the effects of different vitamin K analogs on activation of EGFR, the kinase Akt, and Signal Transducer and Activator of Transcription-3 (STAT-3) were assessed by western blot analysis using antibodies for the phosphorylated (activated) forms of EGFR, Akt and Stat-3. […] Vitamins K1, K2, and K3 were purchased from Sigma-Aldrich (St Louis, Mo.). Activation of EGFR, Akt and Stat-3 were assessed in the presence and absence of anti-EGFR treatments of the cells. Activation of EGFR by vitamin K analog was also assessed using mouse skin, which was homogenized and lysed after treatment with the vitamin K analog. Phosphatase activity was determined using pNPP (4-nitrophenyl phosphate disodium) as a substrate.
# Akt = assay: Western blot of phosphorylated Akt in A431 / HN5 cells; type: cell-based, human; conditions: for concentration at which activation of Akt was seen / activation (phosphorylation) of Akt: A431 cells, 2 hours exposure; for activation (phosphorylation) of Akt: concentrations up to 1000 μM
# Experimental: (§2) FIG. 1A-1C. Effects of Vitamins K1, K2 and K3 (VK1, VK2, VK3) on the phosphorylation of EGFR (A), AKT (B) and Stat-3 (C) in human A431 vulvar carcinoma cells. A431 cells (1×10^6 cells/well) were plated in a 6-well plate, and incubated in RPMI-1640 medium with 10% serum overnight. Cells were exposed to the indicated concentrations of VK1, VK2 and VK3 for 2 hours. Following exposure, cells were washed twice with cold phosphate buffered saline (PBS) solution, and lysed with 50 μl of lysis buffer. Equal amounts of lysate (30 μg of protein) were subjected to a 7.5% or a 12% SDS-PAGE. EGFR, phos-EGFR, AKT, phos-AKT, Stat-3, and phos-Stat-3 were detected by immunoblotting analysis using corresponding antibodies. Vitamin K3 stimulated EGFR, Akt and Stat-3.
# (§3) Two human cell lines that overexpress non-mutated EGFR were used: A431 vulvar carcinoma and HN5 head and neck carcinoma. Cells were exposed to different concentrations of different vitamin K analogs in the presence of one of three EGFR inhibitors: the anti-EGFR monoclonal antibody cetuximab (Erbitux®) and the EGFR tyrosine kinase inhibitors (TKIs) erlotinib (Tarceva®) and gefitinib (Iressa®). Cytotoxicity was assessed by cell counting. Cells were lysed and the effects of different vitamin K analogs on activation of EGFR, the kinase Akt, and Signal Transducer and Activator of Transcription-3 (STAT-3) were assessed by western blot analysis using antibodies for the phosphorylated (activated) forms of EGFR, Akt and Stat-3. Polyclonal antibodies of anti-EGFR, anti-phos-EGFR (Tyr1068), anti-AKT, anti-phos-AKT (Ser473), anti-Stat-3, and anti-phos-Stat-3 (Tyr-705) were purchased from Cell Signaling (Beverly, Mass.). Vitamins K1, K2, and K3 were purchased from Sigma-Aldrich (St Louis, Mo.). Activation of EGFR, Akt and Stat-3 were assessed in the presence and absence of anti-EGFR treatments of the cells. Activation of EGFR by vitamin K analog was also assessed using mouse skin, which was homogenized and lysed after treatment with the vitamin K analog. Phosphatase activity was determined using pNPP (4-nitrophenyl phosphate disodium) as a substrate.
# Stat-3 = assay: Western blot of phosphorylated Stat-3 in A431 / HN5 cells; type: cell-based, human; conditions: for activation (phosphorylation) of Stat-3: concentrations up to 1000 μM
# Experimental: as §2, §3
# [3] = tested on: A431 vulvar carcinoma cells; assay: Erlotinib-induced cell growth inhibition / cytotoxicity by cell counting; type: cell-based, human
# Experimental: as §1
# phosphatase activity = assay: Phosphatase activity in A431 cell extracts with pNPP substrate; type: cell-based, human
# Experimental: FIG. 5. […] A431 cells were exposed to 0.1 mM VK3 for 1 hour. After exposure, cells were washed three times with cold medium and then reincubated in VK3-free medium with 10% fetal bovine serum for the indicated time. Cells were harvested and cell extracts were prepared for the assay of phosphatase activity using pNPP (4-nitrophenyl phosphate disodium) as a substrate. Control (Con) means the phosphatase activity in cells without exposure to VK3. The relative phosphatase activity was expressed as compared with that in control as one. VK3-induced phosphatase inhibition is reversible following removal of VK3.
# as §1
# [4] = cited from earlier work
# EGFR [5] = target: EGFR (Mus musculus, UniProt Q01279); assay: EGFR phosphorylation in mouse skin tissue (immunoblot)
# Chain of EGFR (Mus musculus, UniProt Q01279) (Q01279 25-1210): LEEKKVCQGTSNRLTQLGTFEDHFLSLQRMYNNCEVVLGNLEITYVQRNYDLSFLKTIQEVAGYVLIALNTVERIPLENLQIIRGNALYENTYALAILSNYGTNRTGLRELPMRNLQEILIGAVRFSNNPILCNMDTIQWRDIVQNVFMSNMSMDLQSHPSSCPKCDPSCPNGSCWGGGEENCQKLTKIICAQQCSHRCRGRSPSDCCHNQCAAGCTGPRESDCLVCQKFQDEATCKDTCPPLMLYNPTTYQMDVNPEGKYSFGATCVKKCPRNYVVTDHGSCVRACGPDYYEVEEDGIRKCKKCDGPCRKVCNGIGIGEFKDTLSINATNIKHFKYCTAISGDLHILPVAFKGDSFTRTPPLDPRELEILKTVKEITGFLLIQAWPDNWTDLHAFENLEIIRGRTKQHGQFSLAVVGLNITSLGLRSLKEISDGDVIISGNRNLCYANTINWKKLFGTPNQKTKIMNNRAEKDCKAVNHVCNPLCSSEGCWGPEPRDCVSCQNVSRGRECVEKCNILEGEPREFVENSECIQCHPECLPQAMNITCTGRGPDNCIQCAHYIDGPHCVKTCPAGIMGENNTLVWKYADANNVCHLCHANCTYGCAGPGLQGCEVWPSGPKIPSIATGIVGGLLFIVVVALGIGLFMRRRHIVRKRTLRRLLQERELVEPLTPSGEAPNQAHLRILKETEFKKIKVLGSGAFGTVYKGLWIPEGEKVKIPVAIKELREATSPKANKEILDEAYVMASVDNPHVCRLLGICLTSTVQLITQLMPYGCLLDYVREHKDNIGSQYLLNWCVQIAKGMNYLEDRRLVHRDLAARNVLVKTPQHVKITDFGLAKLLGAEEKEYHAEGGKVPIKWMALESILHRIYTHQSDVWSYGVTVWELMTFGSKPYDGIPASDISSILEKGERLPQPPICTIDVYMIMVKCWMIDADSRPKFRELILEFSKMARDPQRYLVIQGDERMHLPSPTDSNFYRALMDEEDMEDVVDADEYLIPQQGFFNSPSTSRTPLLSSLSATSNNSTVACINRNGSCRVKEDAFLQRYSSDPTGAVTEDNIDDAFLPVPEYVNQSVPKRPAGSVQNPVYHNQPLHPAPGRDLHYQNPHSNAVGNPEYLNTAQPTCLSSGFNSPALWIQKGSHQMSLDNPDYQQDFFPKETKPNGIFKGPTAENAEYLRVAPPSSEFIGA
# Experimental: Effect of Vitamin K3 (menadione) on erlotinib-induced inhibition of EGFR phosphorylation in mouse skin. […] Mice were administrated P.O. daily 50 mg/kg of erlotinib; mouse skin was smeared with VK3 15 mM ethanol solution. After treatment, the mice were sacrificed and skin tissue was taken. 100 mg skin tissue was used for the preparation of tissue extracts. Equal amounts of skin tissue extracts (80 μg of protein) were subjected on a 7.5% SDS-PAGE. Total EGFR and p-EGFR were detected by immunoblot analysis.
# Effect of VK3, Cream B and Cream VK on EGFR phosphorylation in mouse skin tissue. The mice were smeared with 30 mM or 100 mM VK3 (in ethanol), or with the same doses of Cream B or Cream VK. Following treatment, mice were sacrificed and skin tissues were taken for the preparation of tissue extracts. Equal amounts of tissue extracts (80 μg of protein) were subjected on a 7.5% of SDS-PAGE. Total EGFR and p-EGFR were detected by immunoblot analysis using polyclonal anti-EGFR and p-EGFR antibodies. Cream B is an over the counter product (Baby Cakes) containing Vitamin K3 according to its label; the concentration is not specified. Cream VK is a 5% Vitamin K cream available over the counter.
# The effect of Vitamin K3 was examined in the skin of animals receiving the EGFR TK inhibitor erlotinib 100 mg/kg×10 days (days 1-10). […] The skin of mice was smeared with Vitamin K3 in ethanol (15 mM BID×5 days on days 5 to 10). The effect of Vitamin K3 was compared to that of two over-the-counter skin creams. Cream B (Baby Cakes) is an over-the-counter product containing Vitamin K3 according to its label; the concentration is not specified. Cream VK is a 5% Vitamin K cream available over-the-counter.
smiles,measurement,setting,value
"CC1=C(C/C=C(/C)CCC[C@H](C)CCC[C@H](C)CCCC(C)C)C(=O)c2ccccc2C1=O (single isomer, unassigned) [cis isomer]",biological activity,[1],little or no biological activity
"CC1=C(C/C=C(\C)CCC[C@H](C)CCC[C@H](C)CCCC(C)C)C(=O)c2ccccc2C1=O [Vitamin K1, 2-methyl-3-phytyl-1,4-naphthoquinone]",concentration at which activation of EGFR was seen,EGFR [2]; A431 cells,1000 µM
same,activation (phosphorylation) of EGFR,EGFR [2]; A431 cells,activated
same,"concentration at which activation was seen, converted to mass concentration",EGFR [2]; A431 cells,about 450 μg/ml
same,concentration at which activation of Akt was seen,Akt,1000 µM
"CC(C)=CCC/C(C)=C/CC/C(C)=C/CC/C(C)=C/CC/C(C)=C/CC/C(C)=C/CC1=C(C)C(=O)c2ccccc2C1=O [Vitamin K2, 2-methyl-3-hexaprenyl-1,4-naphthoquinone]",activation (phosphorylation) of EGFR,EGFR [2]; A431 cells,little or no effect
same,activation (phosphorylation) of Akt,Akt,little or no effect
same,activation (phosphorylation) of Stat-3,"Stat-3; A431 cells, 2 hours exposure",little or no effect
"CC1=CC(=O)c2ccccc2C1=O [Vitamin K3, 2-methyl-1,4-naphthoquinone]",reversibility of induced EGFR phosphorylation,"EGFR [2]; A431 cells, 0.1 mM VK3 1 hour, then VK3-free medium",reversible
same,concentration at which activation of EGFR was seen,EGFR [2]; A431 cells,100 µM
same,activation (phosphorylation) of EGFR,EGFR [2]; A431 cells,stimulated; also recorded: activated
same,"concentration at which activation was seen, converted to mass concentration",EGFR [2]; A431 cells,about 17 μg/ml
same,activation of EGFR in the presence of erlotinib,"EGFR [2]; A431 or HN5 cells, serum free medium, erlotinib 2 μM, Vitamin K3 0.01-0.5 mM, 2 hours",prevents the inhibition of EGFR phosphorylation; also recorded: activated
same,activation of EGFR in the presence of cetuximab,EGFR [2]; Vitamin K3 0.1 and 0.5 mM,activated
same,concentration at which activation of Akt was seen,Akt,100 µM
same,activation (phosphorylation) of Akt,Akt,stimulated; also recorded: activated
same,activation of Akt in the presence of erlotinib,"Akt; A431 or HN5 cells, erlotinib 2 μM, at 0.5 mM vitamin K3",activated
same,activation of Akt in the presence of cetuximab,Akt; Vitamin K3 0.1 and 0.5 mM,activated
same,concentration at which activation of Stat-3 was seen,"Stat-3; A431 cells, 2 hours exposure",100 µM
same,activation (phosphorylation) of Stat-3,"Stat-3; A431 cells, 2 hours exposure",stimulated; also recorded: activated
same,activation of Stat-3 in the presence of erlotinib,"Stat-3; A431 or HN5 cells, erlotinib 2 μM, at 0.1 and 0.5 mM vitamin K3",activated
same,activation of Stat-3 in the presence of cetuximab,Stat-3; Vitamin K3 0.1 and 0.5 mM,activated
same,decrease of cytotoxicity of the EGFR inhibitor (erlotinib),"[3]; co-incubation with Vitamin K3 50-100 μM, 72 hours, cell counting",4-6 fold
same,effect on phosphatase activity,"phosphatase activity; A431 cells, 0.1 mM VK3 for 1 hour, pNPP substrate",inhibits phosphatase activity; also recorded: inhibiting phosphatase activity
same,time after removal at which phosphatase inhibition is reversed,"phosphatase activity; A431 cells, reincubation in VK3-free medium",2 to 3 h
same,reversibility of phosphatase inhibition,phosphatase activity; following removal of VK3,reversible
same,dermatitis on topical administration,"[4]; Page et al., 1942",can cause dermatitis
same,vesiculation of the skin on topical administration,"[4]; Ulbrich, 1961",vesiculation of the skin
same,p-EGFR in skin of mice receiving erlotinib,"EGFR [5]; erlotinib P.O. daily, skin smeared with Vitamin K3 15 mM in ethanol BID x 5 days (days 5 to 10)",rescues; also recorded: significant p-EGFR expression
same,EGFR phosphorylation in mouse skin tissue,"EGFR [5]; skin smeared with 30 mM or 100 mM (VK3 in ethanol) x 3 doses every 12 hours, same doses of creams",activates EGFR
same,activation of EGFR in normal mouse skin,EGFR [5]; topical application,activated
C#Cc1cccc(Nc2ncnc3cc(OCCOC)c(OCCOC)cc23)c1 [erlotinib],effect of exposure on cells,"[3]; A431 cells, erlotinib alone",cell death

# Reference: patent US8283382B2, “Vitamin K for prevention and treatment of skin rash secondary to anti-EGFR therapy” (Albert Einstein College of Medicine of Yeshiva University, priority 2005, dated 2012)
